{"source": "patent US20220281848A1", "about": "“PYRAZOLE-SUBSTITUTED PYRROLIDINONES AS HERBICIDES” (FMC Corporation, priority 2019, published 2022)", "format_in_all_cases": "in vivo", "key": {"[1]": {"test_system": "barnyardgrass (Echinochloa crus-galli, ECHCG)", "assay": "Test A pre-emergence, barnyardgrass", "conditions": "after 13 d", "summary_of_the_method": "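Seeds were sown in standard soil in pots, kept one day in a glasshouse (24/16° C. day/night, 14 h light, 65% humidity), then sprayed with compound in acetone/water (50:50) containing 0.5% Tween 20 at 15.625, 62.5 or 250 g/ha. Plants grew on under the same conditions, watered twice daily, and damage was scored after 13 d (0 = none, 100 = total).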"}, "corn (Zea mays, ZEAMX)": {"test_system": "corn (Zea mays, ZEAMX)", "assay": "Test A post-emergence, corn", "conditions": "after 13 d", "summary_of_the_method": "(§1)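 Plants sown in standard soil were grown 8 d in a glasshouse (24/16 °C day/night, 14 h light, 65% humidity), then sprayed with compound in acetone/water (50:50) with 0.5% Tween 20 at 15.625, 62.5 or 250 g/ha. Damage was scored after 13 d (0 = none, 100 = total).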"}, "[2]": {"test_system": "barnyardgrass (Echinochloa crus-galli, ECHCG)", "assay": "Test A post-emergence, barnyardgrass", "conditions": "after 13 d", "summary_of_the_method": "as §1"}, "maize": {"test_system": "maize", "assay": "Test D pre-emergence, maize seed treated with a herbicide safener", "conditions": "ZEAMX, preemergent, 20 DAA", "description": "(§2) A formulation containing 50 g/L of the test chemical was prepared by dissolving the active ingredient in a mixture of organic solvents and emulsifier, details of which are provided in the table. This formulation was then mixed with a small, variable amount of acetone to aid dissolution, before addition of a 0.2% v/v aqueous solution of an adjuvant, as the aqueous diluent, to form an aqueous spray solution which contains a predetermined concentration of the active ingredient.\n(§3) This aqueous spray solution was then sprayed onto plants including maize and wheat that had been seed treated with a herbicide safener, after one day's cultivation (for pre-emergence) or after about 12 days' cultivation (for post-emergence). The plants were grown from seeds sown in standard soil, placed in a glasshouse under controlled conditions (at 24/18° C. or 20/16° C., day/night; 16 h light; 65% humidity). After spray application the plants were then grown in a glasshouse under the same conditions and watered twice daily. After 15 d for post-emergence and 20 DAA for pre-emergence the test was evaluated (100=total damage to plant; 0=no damage to plant)."}, "plants": {"test_system": "plants", "assay": "Test D post-emergence, other plants of Tables D2 and D4", "conditions": "post-emergence", "description": "as §2, §3"}}, "data": [{"compound": "CCn1nc([C@H]2CN(C)C(=O)[C@@H]2C(=O)Nc2cccc(F)c2F)c2cc(F)ccc21", "note": "[Compound 8]", "values": [{"measurement": "damage to plant (100=total damage; 0=no damage) ECHCG", "setting": "[1]; Pre-Emergence at 15.625 g/ha", "result": 80}, {"measurement": "damage to plant (100=total damage; 0=no damage) ECHCG", "setting": "[1]; Pre-Emergence at 62.5 g/ha", "result": 90}, {"measurement": "damage to plant (100=total damage; 0=no damage) ECHCG", "setting": "[1]; Pre-Emergence at 250 g/ha", "result": 90}, {"measurement": "damage to plant (100=total damage; 0=no damage) ZEAMX", "setting": "corn (Zea mays, ZEAMX); Post-Emergence at 15.625 g/ha", "result": 20}, {"measurement": "damage to plant (100=total damage; 0=no damage) ZEAMX", "setting": "corn (Zea mays, ZEAMX); Post-Emergence at 62.5 g/ha", "result": 60}, {"measurement": "damage to plant (100=total damage; 0=no damage) ZEAMX", "setting": "corn (Zea mays, ZEAMX); Post-Emergence at 250 g/ha", "result": 80}, {"measurement": "damage to plant (100=total damage; 0=no damage) ECHCG", "setting": "[2]; Post-Emergence at 15.625 g/ha", "result": 60}, {"measurement": "damage to plant (100=total damage; 0=no damage) ECHCG", "setting": "[2]; Post-Emergence at 62.5 g/ha", "result": 70}, {"measurement": "damage to plant (100=total damage; 0=no damage) ECHCG", "setting": "[2]; Post-Emergence at 250 g/ha", "result": 80}, {"measurement": "damage to plant (100=total damage to plant; 0=no damage to plant), ZEAMX", "setting": "maize; rate 15", "result": 0}, {"measurement": "damage to plant (100=total damage to plant; 0=no damage to plant), ZEAMX", "setting": "maize; rate 30", "result": 0}, {"measurement": "damage to plant (100=total damage to plant; 0=no damage to plant), ZEAMX", "setting": "maize; rate 60", "result": 0}, {"measurement": "damage to plant (100=total damage to plant; 0=no damage to plant), ZEAMX", "setting": "maize; rate 130", "result": 0}, {"measurement": "damage to plant (100=total damage to plant; 0=no damage to plant), ZEAMX", "setting": "maize; rate 250", "result": 0}, {"measurement": "damage to plant (100=total damage to plant; 0=no damage to plant), ZEAMX", "setting": "maize; rate 500", "result": 10}, {"measurement": "damage to plant (100=total damage to plant; 0=no damage to plant), ABUTH", "setting": "plants; rate 130, evaluated after 15 d", "result": 0}, {"measurement": "damage to plant (100=total damage to plant; 0=no damage to plant), ABUTH", "setting": "plants; rate 250, evaluated after 15 d", "result": 0}, {"measurement": "damage to plant (100=total damage to plant; 0=no damage to plant), ABUTH", "setting": "plants; rate 500, evaluated after 15 d", "result": 0}, {"measurement": "damage to plant (100=total damage to plant; 0=no damage to plant), AMARE", "setting": "plants; rate 130, evaluated after 15 d", "result": 0}, {"measurement": "damage to plant (100=total damage to plant; 0=no damage to plant), AMARE", "setting": "plants; rate 250, evaluated after 15 d", "result": 0}, {"measurement": "damage to plant (100=total damage to plant; 0=no damage to plant), AMARE", "setting": "plants; rate 500, evaluated after 15 d", "result": 0}, {"measurement": "damage to plant (100=total damage to plant; 0=no damage to plant), BIDPI", "setting": "plants; rate 130, evaluated after 15 d", "result": 0}, {"measurement": "damage to plant (100=total damage to plant; 0=no damage to plant), BIDPI", "setting": "plants; rate 250, evaluated after 15 d", "result": 0}, {"measurement": "damage to plant (100=total damage to plant; 0=no damage to plant), BIDPI", "setting": "plants; rate 500, evaluated after 15 d", "result": 0}, {"measurement": "damage to plant (100=total damage to plant; 0=no damage to plant), BRAPL", "setting": "plants; rate 130, evaluated after 15 d", "result": 10}, {"measurement": "damage to plant (100=total damage to plant; 0=no damage to plant), BRAPL", "setting": "plants; rate 250, evaluated after 15 d", "result": 70}, {"measurement": "damage to plant (100=total damage to plant; 0=no damage to plant), BRAPL", "setting": "plants; rate 500, evaluated after 15 d", "result": 70}, {"measurement": "damage to plant (100=total damage to plant; 0=no damage to plant), CYPES", "setting": "plants; rate 130, evaluated after 15 d", "result": 0}, {"measurement": "damage to plant (100=total damage to plant; 0=no damage to plant), CYPES", "setting": "plants; rate 250, evaluated after 15 d", "result": 0}, {"measurement": "damage to plant (100=total damage to plant; 0=no damage to plant), CYPES", "setting": "plants; rate 500, evaluated after 15 d", "result": 0}, {"measurement": "damage to plant (100=total damage to plant; 0=no damage to plant), DIGSA", "setting": "plants; rate 130, evaluated after 15 d", "result": 0}, {"measurement": "damage to plant (100=total damage to plant; 0=no damage to plant), DIGSA", "setting": "plants; rate 250, evaluated after 15 d", "result": 80}, {"measurement": "damage to plant (100=total damage to plant; 0=no damage to plant), DIGSA", "setting": "plants; rate 500, evaluated after 15 d", "result": 80}, {"measurement": "damage to plant (100=total damage to plant; 0=no damage to plant), ECHCG", "setting": "plants; rate 130, evaluated after 15 d", "result": 0}, {"measurement": "damage to plant (100=total damage to plant; 0=no damage to plant), ECHCG", "setting": "plants; rate 250, evaluated after 15 d", "result": 80}, {"measurement": "damage to plant (100=total damage to plant; 0=no damage to plant), ECHCG", "setting": "plants; rate 500, evaluated after 15 d", "result": 80}, {"measurement": "damage to plant (100=total damage to plant; 0=no damage to plant), EPHHL", "setting": "plants; rate 250, evaluated after 15 d", "result": 30}, {"measurement": "damage to plant (100=total damage to plant; 0=no damage to plant), EPHHL", "setting": "plants; rate 500, evaluated after 15 d", "result": 20}, {"measurement": "damage to plant (100=total damage to plant; 0=no damage to plant), GLXMA", "setting": "plants; rate 130, evaluated after 15 d", "result": 0}, {"measurement": "damage to plant (100=total damage to plant; 0=no damage to plant), GLXMA", "setting": "plants; rate 250, evaluated after 15 d", "result": 0}, {"measurement": "damage to plant (100=total damage to plant; 0=no damage to plant), GLXMA", "setting": "plants; rate 500, evaluated after 15 d", "result": 0}, {"measurement": "damage to plant (100=total damage to plant; 0=no damage to plant), IPOHE", "setting": "plants; rate 130, evaluated after 15 d", "result": 0}, {"measurement": "damage to plant (100=total damage to plant; 0=no damage to plant), IPOHE", "setting": "plants; rate 250, evaluated after 15 d", "result": 0}, {"measurement": "damage to plant (100=total damage to plant; 0=no damage to plant), IPOHE", "setting": "plants; rate 500, evaluated after 15 d", "result": 0}, {"measurement": "damage to plant (100=total damage to plant; 0=no damage to plant), ORYSA", "setting": "plants; rate 130, evaluated after 15 d", "result": 0}, {"measurement": "damage to plant (100=total damage to plant; 0=no damage to plant), ORYSA", "setting": "plants; rate 250, evaluated after 15 d", "result": 0}, {"measurement": "damage to plant (100=total damage to plant; 0=no damage to plant), ORYSA", "setting": "plants; rate 500, evaluated after 15 d", "result": 10}, {"measurement": "damage to plant (100=total damage to plant; 0=no damage to plant), PANMI", "setting": "plants; rate 130, evaluated after 15 d", "result": 0}, {"measurement": "damage to plant (100=total damage to plant; 0=no damage to plant), PANMI", "setting": "plants; rate 250, evaluated after 15 d", "result": 0}, {"measurement": "damage to plant (100=total damage to plant; 0=no damage to plant), PANMI", "setting": "plants; rate 500, evaluated after 15 d", "result": 0}, {"measurement": "damage to plant (100=total damage to plant; 0=no damage to plant), SETFA", "setting": "plants; rate 130, evaluated after 15 d", "result": 0}, {"measurement": "damage to plant (100=total damage to plant; 0=no damage to plant), SETFA", "setting": "plants; rate 250, evaluated after 15 d", "result": 60}, {"measurement": "damage to plant (100=total damage to plant; 0=no damage to plant), SETFA", "setting": "plants; rate 500, evaluated after 15 d", "result": 80}, {"measurement": "damage to plant (100=total damage to plant; 0=no damage to plant), SIDSP", "setting": "plants; rate 130, evaluated after 15 d", "result": 0}, {"measurement": "damage to plant (100=total damage to plant; 0=no damage to plant), SIDSP", "setting": "plants; rate 250, evaluated after 15 d", "result": 0}, {"measurement": "damage to plant (100=total damage to plant; 0=no damage to plant), SIDSP", "setting": "plants; rate 500, evaluated after 15 d", "result": 10}, {"measurement": "damage to plant (100=total damage to plant; 0=no damage to plant), SORVU", "setting": "plants; rate 130, evaluated after 15 d", "result": 0}, {"measurement": "damage to plant (100=total damage to plant; 0=no damage to plant), SORVU", "setting": "plants; rate 250, evaluated after 15 d", "result": 0}, {"measurement": "damage to plant (100=total damage to plant; 0=no damage to plant), SORVU", "setting": "plants; rate 500, evaluated after 15 d", "result": 0}]}]}
